From patent US7964631B2, “Fused tricyclic compounds as inhibitors of tumor necrosis factor-α” (Piramal Life Sciences Limited, priority 2004, dated 2011)

Assays:
[1] = tested on: peripheral blood mononuclear cells (PBMC); test: Cytotoxicity of test compounds in PBMC, cell viability by MTS reagent; assay type: cell-based, human
Method: (§1) TNF-α production by LPS in peripheral blood mononuclear cells (PBMC) was measured according to the method described by Henry et al (J. Bioorg. Med. Chem. Lett., 8: 3335-3340, 1998). Briefly, blood was collected from healthy donors into Potassium EDTA vacutainer tubes (Vacutest Plast/Becton Dickinson). PBMC were isolated using gradient centrifugation in Ficoll-Paque solution (Pharmacia). Isolated PBMC were suspended in RPMI 1640 culture medium (Gibco BRL, Pasley, UK) containing 10% fetal bovine serum (FBS) (Hyclone, Utah, USA), 100 U/ml penicillin (Sigma Chemical Co. St Louis, Mo.) and 100 μg/ml streptomycin (Sigma Chemical Co. St Louis, Mo.). The cell concentration was adjusted to 1×10^6 cells/ml. The viability as determined by trypan blue dye exclusion was uniformly ≧98%. The cell suspension (100 μl) was added to the wells of a 96-well culture plate. Following cell plating, 79 μl of the culture medium and 1 μl of eight different concentrations of the test compounds (final concentration 0.03, 0.1, 0.3, 1, 3, 10, 30, 100 μM) dissolved in DMSO (dimethylsulfoxide, Sigma, Mo., USA) were added to the cells. The final concentration of DMSO was adjusted to 0.5%. The appropriate DMSO concentration was used as control. Rolipram (30 μM) was used as a standard compound. The plates were incubated for 30 min at 37° C. in an atmosphere of 5% CO2. Finally, 20 μl (10 μg/ml) per well of LPS, (Escherchia coli 0127:B8, Sigma Chemical Co., St. Louis, Mo.) was added, for a final concentration of 1 μg/ml. The plates were incubated at 37° C. for 4.5 h in an atmosphere of 5% CO2. To determine the cytotoxicity of the test compounds, the cell viability was assessed using MTS (3-(4,5-dimethylthiazol-2-yl)-5-(3-carboxymethoxyphenyl)-2-(4-sulfonyl)-2H-tetrazolium) reagent (Promega) after 4.5 h of incubation. Supernatants were harvested and assayed for TNF-α by ELISA as described by the manufacturer (R&D Systems, MN, BD Biosciences Pharmingen) or by cytotoxicity bioassay in L929 cells. The 50% inhibitory concentration (IC50) values were calculated by a nonlinear regression method using GraphPad software (Prism 3.03)

TNF-α [2] = test: Whole blood cell culture assay: LPS-induced TNF-α release (primary screening); assay type: cell-based, human; conditions: Homo sapiens, Whole blood cell; test compound 1 μM; diluted whole blood of healthy donors; LPS 1 μg/ml, 4.5 h; vs DMSO control
Method: TNF-α production by lipopolysaccharide (LPS) in whole blood was measured according to the method described by Wilson et al (J. Immunol. Methods, 139: 233-240, 1991). Briefly, blood was collected from healthy donors into potassium EDTA vacutainer tubes (Vacutest Plast/Becton Dickinson) and diluted with RPMI 1640 culture medium (Gibco BRL, Pasley, UK) containing 100 U/ml penicillin and 100 μg/ml streptomycin, (100× solution, Sigma Chemical Co. St Louis, Mo.) with no added serum. The white blood cell count was adjusted to 1×10^6 cells/ml and 100 μl/well of the diluted blood was transferred into 96-well culture plates. Following cell plating, 79 μl of culture medium and 1 μl of the test compounds (final concentration 1 μM) dissolved in DMSO (dimethylsulfoxide, Sigma, Mo., USA) was added to the cells. The final concentration of DMSO was adjusted to 0.5%. 1 μl of vehicle (0.5% DMSO) was used as control. Rolipram (100 μM) was used as a standard compound. The plates were incubated for 30 min at 37° C. in an atmosphere of 5% CO2. Finally, 20 μl (10 μg/ml) per well of LPS (Escherchia coli 0127:B8, Sigma Chemical Co., St. Louis, Mo.) was added, for a final concentration of 1 μg/ml. Plates were incubated at 37° C. for 4.5 h in an atmosphere of 5% CO2. Supernatants were harvested and assayed for TNF-α by ELISA as described by the manufacturer (R&D Systems, MN) or by cytotoxicity bioassay in L929 cells. Percent inhibition of TNF-α release in comparison to the control was calculated.

TNF-α [3] = test: LPS-induced TNF-α production in peripheral blood mononuclear cells (secondary screening); assay type: cell-based; conditions: 4.5 h, TNF-α production in PBMC, LPS 1 μg/ml, ELISA or L929 bioassay
Method: as §1

TNF-α [4] = test: LPS-induced TNF-α release in BALB/c mice; assay type: in vivo; conditions: Mus musculus, 100 mg/kg po, LPS 1 mg/kg i.p. 1 h after dosing, plasma TNF-α 1.5 h after LPS, read-out: % inhibition (Mean ± SE*)
Method: The protocol described by Fukuda T. et al (Eur. J. Pharmacol., 391: 317-320, 2000) was followed. BALB/c mice were divided into groups of five to ten each. The test compound, suspended in Tween 80-0.5% carboxy methylcellulose (CMC), with a few drops of Tween 80 as wetting agent if necessary, was administered orally (p.o.) to the mice. One hour later, LPS dissolved in sterile, pyrogen-free saline was administered i.p. at the dose of 1 mg/kg. The negative control group received saline as an i.p injection, while all other groups received LPS. Rolipram (30 mg/kg) was used as the standard drug. One and a half hours later, blood was collected in heparin. Plasma was separated by centrifugation at 13000 rpm (Heraeus Biofuge Pico Centrifuge) at room temperature, aliquoted and stored at −70° C. until analysis.
TNF-α levels in the blood samples were assayed using ELISA and % inhibition of TNF-α release compared to the control group was calculated.

| Compound | % toxicity (10 μM), 5 h [1] | melting point | inhibition at 1 µM (TNF-α [2]) | IC50 (TNF-α [3]) | inhibition in vivo at 100 mg/kg (TNF-α [4]) |
| --- | --- | --- | --- | --- | --- |
| COC(=O)c1cc(C)c2c(c1)S(=O)(=O)Cc1cc(N3CCN(C(=O)OCc4ccccc4)CC3)cc(Cl)c1O2 [Example 26, 4-(4-Chloro-8-methoxycarbonyl-6-methyl-10,10-dioxo-10,11-dihydro-5-oxa-10lambda*6*-thia-dibenzo[a,d]cyclohepten-2-yl)-piperazine-1-carboxylic acid benzyl ester] | 00% | 170 to 173 °C | 85% | 8.05 ± 1.57 µM | 68.7 ± 3.68% |
| COC(=O)c1cc(C)c2c(c1)S(=O)(=O)Cc1cc(N3CCCNCC3)cc(Cl)c1O2.Cl [Example 29, 4-Chloro-2-[1,4]diazepan-1yl-6-methyl-10,10-dioxo-10,11-dihydro-5-oxa-10lambda*6*-thia-dibenzo[a,d]cycloheptene-8-carboxylic acid methyl ester hydrochloride] | 23% | 270 °C (dec.) | 76% | 0.51 µM | 79.1 ± 0.91% |
